Measured values published in patent US12522596B2, “Compounds as GLP-1R agonists” (Terns Pharmaceuticals, Inc., priority 2021, dated 2026).

Assays:
[1] = target: T1, human GLP-1R receptor (Homo sapiens, UniProt P43220); assay: GLP-1R low expression cell assay (cAMP TR-FRET, CHO-K1_hGLP-1Rlow_clone10); assay type: cell-based; conditions: CHO-K1_hGLP-1Rlow_clone10 cells
T1 construct: expressed in transfected cells
Method: Stable cell lines expressing high and low GLP-1R surface expression were generated in CHO-K1 cells transfected (Fugene 6) with a puromycin selectable DNA plasmid encoding human GLP-1R receptor (accession number: NM_002062.5) under control of an EF1A promoter. Transfected cells were seeded into 24-well plates (9,000 cells/well) containing complete medium and incubated in a humidified incubator at 37° C. with 5% carbon dioxide. After overnight incubation, medium was replaced with complete medium supplemented with puromycin (6 μg/mL) and refreshed every 2-3 days to select for stably transfected cells. Individual pools of selected cells were expanded prior to analysis for responsiveness to GLP-1 control peptide using a TR-FRET assay to detect cAMP (LANCE Ultra CAMP Assay, Perkin Elmer). Briefly, cells were collected in Versene solution, plated in 384-well plates (1,000 cells/well) and combined with serially diluted GLP-1R control peptide (10 nL) using an acoustic dispenser (ECHO). Plates were incubated for 30 minutes at 25° C. prior to the addition of EU-CAMP tracer (5 μL) and Ulight-anti-cAMP (5 μL) reagents to each well, followed by 15 minutes incubation at 25° C. TR-FRET signal was detected using an En Vision Multimode Plate Reader (excitation=320 nm; emission=615 and 655 nm). Dose-response curves were used to generate EC50 values as a measure of responsiveness to the GLP-1R control peptide. Selected cell lines were monitored for responsiveness over multiple passages to ensure stability. […] Briefly, GLP-1R expression was analyzed by flow cytometry using a fluorescein-labeled Exendin-4 peptide fluorescent probe (FLEX). Cells were harvested in Versene solution and washed 3-times with PBS+0.5% BSA before incubation with FLEX reagent (10 μM) for 2 hours at room temperature. After incubation, cells were washed 3-times in PBS+0.5% BSA before final resuspension in PBS prior to analysis by flow cytometry to measure FLEX mean fluorescence intensity (MFI) as a measure of GLP-1R expression on the cell surface.
For compound testing in the CHO-K1_hGLP-1Rlow_clone10 cell line, cells were seeded in 384-well plates (1,000 cells/well). Test compounds were serially diluted in DMSO (10-point, 3-fold dilution), added to wells using an ECHO dispenser (10 nL/well) and plates were centrifuged for 1 min and agitated for 2 min at room temperature prior to 30-minute incubation at 25° C. After incubation, Eu-CAMP (5 μL) and Ulight-anti-cAMP (5 μL) reagents were added to each well, followed by centrifugation for 1 minute, agitation for 2 minutes at room temperature, and final incubation of the plates at 25° C. for 15 minutes. Plates were read using an EnVision microplate reader (excitation=320 nm; emission=615 and 655 nm). Dose-response curves were generated from duplicate wells based on percent activation calculated relative to a control GLP-1 peptide agonist that was run in parallel. EC50 values were determined by fitting percent activation as a function of compound concentration using the Hill equation (XLfit).
Stable cell lines expressing high and low GLP-1R surface expression were generated in CHO-K1 cells transfected (Fugene 6) with a puromycin selectable DNA plasmid encoding human GLP-1R receptor (accession number: NM_002062.5) under control of an EF1A promoter. Transfected cells were seeded into 24-well plates (9,000 cells/well) containing complete medium and incubated in a humidified incubator at 37° C. with 5% carbon dioxide. After overnight incubation, medium was replaced with complete medium supplemented with puromycin (6 μg/mL) and refreshed every 2-3 days to select for stably transfected cells. Individual pools of selected cells were expanded prior to analysis for responsiveness to GLP-1 control peptide using a TR-FRET assay to detect cAMP (LANCE Ultra CAMP Assay, Perkin Elmer).

[2] = Rat pharmacokinetics, oral dosing; assay type: in vivo, Sprague-Dawley rats; conditions: for Cmax / AUC(0-t) / half-life: male, Sprague-Dawley, rat plasma, 3 mg/kg PO (0.6 mg/mL); for PK properties relative to Reference Compound A: dosed orally
Method: Oral dosing: Compounds were formulated at 0.3 mg/mL or 0.6 mg/mL in a solution comprising 5% polyethylene glycol 400 and 95% (12% (w/v) sulfobutyl-β-cyclodextrin in water) (v/v). Formulated compounds were administered to male, 7-11 week old Sprague-Dawley rats by oral gavage at a dose of 3 mg/kg.
Sample collection: Blood collections of about 0.2 mL per time point were performed from jugular vein or other suitable site of each animal, into pre-chilled commercial EDTA-K2 tubes and placed on wet ice until centrifugation. Blood samples were processed for plasma by centrifugation at approximately 4° C., 3,200 g for 10 min. Plasma was collected and transferred into pre-labeled 96 well plate or polypropylene tubes, quick frozen over dry ice and kept at −60° C. or lower until LC-MS/MS analysis.
Data analysis: Plasma concentration versus time data was plotted in graph and analyzed by non-compartmental approaches using the Phoenix WinNonlin 6.3 software program. Related PK parameters were calculated according to dosing route, e.g., CL, Vdss and C0 for intravenous administration, Cmax, Tmax or % F for extravascular administration, and T1/2, AUC(0-t), AUC(0-inf), MRT(0-t), MRT(0-inf) for all routes.

[3] = Metabolic stability in rat hepatocytes; assay type: in vitro ADME; conditions: cryopreserved hepatocytes, 1 μM
Method: (§1) Test compounds were incubated in rat and human hepatocytes and stability was assessed from the substrate […] approach. Test compounds were dissolved in dimethyl sulfoxide (DMSO) to create a 10 mM Stock, and then further diluted to create a 1000× Working Stock of 1 mM with DMSO in 96-well plates for test compounds and the positive control (midazolam). Vials containing cryopreserved hepatocytes were removed from the liquid nitrogen tank and immediately immersed in a 37° C. water bath. The vials were shaken gently until the contents had thawed and were then immediately emptied into 48 mL of pre-warmed HT Medium in a 50 mL conical tube. Cells remaining in the vial were resuspended with 1.0 mL of pre-warmed HT Medium and added to the conical tube. The tube was capped and then gently inverted several times to resuspend the hepatocytes. The cell suspension was centrifuged at 50×g at room temperature for 5 minutes and the supernatant discarded. The cell pellet was loosened by gently swirling the centrifuge tube and was re-suspended in 4 mL of warm Dulbecco's Modified Eagle medium (DMEM). Cell density was determined by a cell counter by Nexcelom, and DMEM medium was added to obtain a target density of 1×10^6 cells/mL. The assay was carried out in 96-well microtiter plates. Test Compounds were incubated at 1 μM with 1×10^6 cells/mL hepatocytes in DMEM for 0, 30, 60, 120 and 240 minutes. The incubation was carried out with gentle shaking at 37° C. under a humid atmosphere of 95% air/5% CO2. The volume of the incubation mixture was 37 μL with a final 0.1% DMSO. At each of the time points, the incubation was stopped by adding 150 μL quenching solution (100% acetonitrile, 0.1% formic acid containing bucetin as an internal standard for positive ESI mode). Subsequently, the mixtures were vortexed for 20 min and centrifuged at 4,000 RPM at 10° C. The supernatant (80 μL) was transferred to a clean 96-well plate and analyzed by LC-MS/MS. Midazolam at 1 μM with a final 0.1% DMSO was included as a positive control to verify assay performance. The percent parent remaining, intrinsic and predicted hepatic clearance and t1/2 were calculated. All samples were analyzed by LC-MS/MS using an AB Sciex API 4000 instrument, coupled to a Shimadzu LC-20AD LC Pump system. Separation was achieved using a Waters Atlantis T3 dC18 reverse phase HPLC column (20 mm×2.1 mm) at a flow rate of 0.5 mL/min. The mobile phase consisted of 0.1% formic acid in water (solvent A) and 0.1% formic acid in 100% acetonitrile (solvent B). Elution conditions are detailed below.
(§2) The ion optics of each test compound were optimized for their declustering potential (DP), […] (CE), collision-cell exit potential (CXP) and used in a selected ion monitoring experiment in the positive ion mode. The peak area ratio of each test compound to internal standard was then evaluated for stability. The extent of metabolism was calculated based on the disappearance of the test compound, compared to its initial concentration. The initial rates of clearance of the test compound were calculated using the linear regression plot of semi-log % remaining of the compound versus time. The elimination rate constant (k) of the linear regression plot was then used to determine t1/2 and the intrinsic clearance (CLint) using the following formula, where Chepatocyte (million cells/mL) is the cell density of the incubation:
(§3) The predicted hepatic clearance (CLhep) was calculated using the well stirred method with the following formula with CLint(in vivo) normalized based on liver weight: […]
(§4) The relevant physiological parameters of liver weight, blood flow, and hepatocellularity for various species are listed below: […]

[4] = tested on: rat hepatocytes; assay: Metabolic stability in rat hepatocytes; assay type: in vitro ADME
Method: as §1, §2, §3, §4

[5] = Metabolic stability in human hepatocytes; assay type: in vitro ADME; conditions: cryopreserved hepatocytes; human hepatocytes, 1 μM
Method: as §1, §2, §3, §4

T1 sequence (P43220 24-463): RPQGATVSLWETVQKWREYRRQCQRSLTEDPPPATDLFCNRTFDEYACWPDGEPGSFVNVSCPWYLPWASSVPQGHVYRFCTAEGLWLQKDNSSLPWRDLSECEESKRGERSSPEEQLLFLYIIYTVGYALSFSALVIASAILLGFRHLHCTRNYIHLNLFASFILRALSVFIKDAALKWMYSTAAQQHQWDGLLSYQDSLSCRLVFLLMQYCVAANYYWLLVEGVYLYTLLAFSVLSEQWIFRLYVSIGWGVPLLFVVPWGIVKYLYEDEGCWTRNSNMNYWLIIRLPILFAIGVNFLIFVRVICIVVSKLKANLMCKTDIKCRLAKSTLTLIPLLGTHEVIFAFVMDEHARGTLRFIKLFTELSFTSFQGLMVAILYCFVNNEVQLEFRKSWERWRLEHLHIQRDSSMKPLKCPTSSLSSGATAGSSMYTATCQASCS

Row | EC50 [1] [nM] | Cmax ([2]; rat, plasma, po, 3 mg/kg) [ng/mL] | PK properties relative to Reference Compound A ([2]; rat) | CLint scaled at 1 μM [3] [mL/min/kg] | half-life at 1 μM [3] [h] | CLint relative to reference standard [4] | CLint scaled at 1 μM [5] [mL/min/kg] | half-life at 1 μM [5] [h] | AUC(0-t) ([2]; rat, plasma, po, 3 mg/kg) [ng·h/mL] | half-life ([2]; rat, plasma, po, 3 mg/kg) [h] | Half-life relative to reference [4] | SMILES | AUC(0-t) [2] [ng·h/mL] | half-life [2] [h]
1 | 8.6 | 478 ± 186 | similarly improved PK properties | 29 ± 0.58 | 1.91 ± 0.0383 | significantly lower | 15.6 ± 0.7 | 2.57 ± 0.117 | 617 ± 248 | 1.37 ± 0.18 | significantly higher | [2H]C([2H])(Oc1cccc(C2CCN(Cc3nc4ccc(C(=O)O)cc4n3Cc3cncs3)CC2)n1)c1ccc(C#N)cc1F [Compound 27] | – | –
2 | 27.8 | 299 ± 62.9 | similarly improved PK properties | 35.8 ± 1.42 | 1.55 ± 0.0615 | significantly lower | 15.3 ± 0.76 | 2.61 ± 0.13 | 411 ± 32 | 1.54 ± 0.46 | significantly higher | N#Cc1cnc(COc2cccc(C3CCN(Cc4nc5ccc(C(=O)O)cc5n4Cc4cncs4)CC3)n2)c(F)c1 [Compound 29] | – | –

Row | SMILES | EC50 [1] [nM] | Cmax ([2]; rat, plasma, po, 3 mg/kg) [ng/mL] | PK properties relative to Reference Compound A ([2]; rat) | CLint scaled at 1 μM [3] [mL/min/kg] | half-life at 1 μM [3] [h] | CLint relative to reference standard [4] | CLint scaled at 1 μM [5] [mL/min/kg] | half-life at 1 μM [5] [h] | AUC(0-t) ([2]; rat, plasma, po, 3 mg/kg) [ng·h/mL] | half-life ([2]; rat, plasma, po, 3 mg/kg) [h] | Half-life relative to reference [4] | AUC(0-t) [2] [ng·h/mL] | half-life [2] [h]
3 | N#Cc1ccc(COc2cccc(C34CCN(Cc5nc6ccc(C(=O)O)cc6n5Cc5cncs5)CC3C4)n2)c(F)c1 (centres unmarked) [Compound 14] | 30.1 | 581 ± 100 | similarly improved PK properties | 92.8 ± 3.3 | 0.597 ± 0.0212 | significantly increased | 20.1 ± 0.59 | 1.99 ± 0.0583 | – | – | – | 582 ± 45 | 3.14 ± 1.88
